ChEMBL document CHEMBL1201862, “PubChem BioAssay data set” (2004)
Blank lines part the entries; values can stand above or below the molecule they belong to. Calls of active or inactive are those of the source.

Assays:
Assay type in all cases: functional
[1] = molecular target: Voltage-dependent T-type calcium channel subunit alpha-1H (Homo sapiens, UniProt O95180); assay: Cav3.2 T-type channel inhibitors, cell-based, synthetic library set 1, calcium flux (AID 493022)
[2] = molecular target: Hexokinase (Trypanosoma brucei, UniProt Q38C41); assay: Confirmation assay for inhibitors of Trypanosoma brucei hexokinase 1-Analogue-first series. [Related pubchem assays (depositor defined):AID1430, AID1632, AID2516, AID2560, AID2579, AID2600, AID449725, AID492951]
Hexokinase, sequence (Q38C41 whole entry): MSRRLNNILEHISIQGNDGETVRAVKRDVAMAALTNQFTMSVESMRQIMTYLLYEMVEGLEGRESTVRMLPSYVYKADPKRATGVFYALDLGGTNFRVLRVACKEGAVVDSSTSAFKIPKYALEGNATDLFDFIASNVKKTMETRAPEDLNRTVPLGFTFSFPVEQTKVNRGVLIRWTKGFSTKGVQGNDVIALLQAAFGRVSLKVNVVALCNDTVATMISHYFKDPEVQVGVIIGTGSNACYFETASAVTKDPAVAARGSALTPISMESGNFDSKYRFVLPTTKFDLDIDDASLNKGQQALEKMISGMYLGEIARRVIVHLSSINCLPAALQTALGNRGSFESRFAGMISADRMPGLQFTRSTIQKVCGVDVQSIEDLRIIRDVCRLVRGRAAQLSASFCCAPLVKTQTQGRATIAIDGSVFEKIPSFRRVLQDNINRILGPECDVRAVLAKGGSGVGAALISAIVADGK

[3] = molecular target: Mu-type opioid receptor (Homo sapiens, UniProt P35372); assay: SAR Analysis of Antagonists of the MOR Receptor using an Image-Based Assay - Set 3. [Related pubchem assays (depositor defined):AID1777, AID1785, AID1786, AID1966, AID2133, AID2136, AID2284, AID2285, AID2420]
Mu-type opioid receptor, sequence (P35372 whole entry): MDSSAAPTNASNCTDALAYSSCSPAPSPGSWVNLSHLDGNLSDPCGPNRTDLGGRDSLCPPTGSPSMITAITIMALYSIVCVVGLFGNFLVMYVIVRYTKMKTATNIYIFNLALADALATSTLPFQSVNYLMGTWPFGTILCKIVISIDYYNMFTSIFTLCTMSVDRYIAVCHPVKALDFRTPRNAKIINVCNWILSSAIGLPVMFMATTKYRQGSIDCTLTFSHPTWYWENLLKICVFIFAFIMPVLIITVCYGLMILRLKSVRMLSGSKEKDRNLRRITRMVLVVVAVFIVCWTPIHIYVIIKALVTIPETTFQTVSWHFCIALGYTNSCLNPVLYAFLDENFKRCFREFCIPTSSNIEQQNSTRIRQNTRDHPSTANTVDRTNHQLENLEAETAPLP

[4] = molecular target: Delta-type opioid receptor (Homo sapiens, UniProt P41143); assay: SAR Analysis of Antagonists of the DOR Receptor using an Image-Based Assay - Set 3. [Related pubchem assays (depositor defined):AID1777, AID1785];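 note: U2OS cells expressing DOR1 and beta-arrestin GFP stimulated with 100 nM SNC80; imaging of GFP-tagged beta-arrestin moving into spots after receptor activation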
Delta-type opioid receptor, sequence (P41143 whole entry): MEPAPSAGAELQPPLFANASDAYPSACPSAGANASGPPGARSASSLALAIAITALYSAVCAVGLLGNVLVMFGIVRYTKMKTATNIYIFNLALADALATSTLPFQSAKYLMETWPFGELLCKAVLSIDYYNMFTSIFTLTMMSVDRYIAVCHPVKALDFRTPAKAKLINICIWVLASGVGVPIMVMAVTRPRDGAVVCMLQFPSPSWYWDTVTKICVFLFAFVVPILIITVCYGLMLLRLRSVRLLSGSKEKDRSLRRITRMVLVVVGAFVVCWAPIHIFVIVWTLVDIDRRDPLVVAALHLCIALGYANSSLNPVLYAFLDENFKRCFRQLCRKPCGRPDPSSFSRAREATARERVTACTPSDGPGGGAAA

[5] = molecular target: T1, Kappa-type opioid receptor (Homo sapiens, UniProt P41145); assay: SAR analysis of small molecule antagonists of the kappa opioid receptor via a luminescent beta-arrestin assay - Set 3. [Related pubchem assays (depositor defined):AID1777, AID1778, AID1785, AID1786, AID1966, AID2133, AID2136, AID2285, AID2495]
T1 sequence (P41145 whole entry): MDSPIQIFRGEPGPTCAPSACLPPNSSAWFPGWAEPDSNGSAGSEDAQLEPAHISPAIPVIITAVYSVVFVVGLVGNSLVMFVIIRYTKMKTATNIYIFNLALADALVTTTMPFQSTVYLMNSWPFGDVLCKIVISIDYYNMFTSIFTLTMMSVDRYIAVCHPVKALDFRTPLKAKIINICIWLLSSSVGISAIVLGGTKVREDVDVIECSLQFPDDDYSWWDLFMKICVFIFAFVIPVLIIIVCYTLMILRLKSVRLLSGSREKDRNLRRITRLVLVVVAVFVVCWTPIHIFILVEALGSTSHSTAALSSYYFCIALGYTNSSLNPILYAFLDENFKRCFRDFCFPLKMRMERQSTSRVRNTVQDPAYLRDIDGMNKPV

[6] = molecular target: T1, Kappa-type opioid receptor; assay: SAR analysis of Antagonists of the Kappa Opioid Receptor (KOR) using an Image-Based Assay - Set 3. [Related pubchem assays (depositor defined):AID1777, AID1785]
[7] = molecular target: T2, Coagulation factor XII (Homo sapiens, UniProt P00748); assay: Factor XIIa Dose Response Confirmation from Single Well HTS. [Related pubchem assays (depositor defined):AID701]
T2 sequence (P00748 whole entry): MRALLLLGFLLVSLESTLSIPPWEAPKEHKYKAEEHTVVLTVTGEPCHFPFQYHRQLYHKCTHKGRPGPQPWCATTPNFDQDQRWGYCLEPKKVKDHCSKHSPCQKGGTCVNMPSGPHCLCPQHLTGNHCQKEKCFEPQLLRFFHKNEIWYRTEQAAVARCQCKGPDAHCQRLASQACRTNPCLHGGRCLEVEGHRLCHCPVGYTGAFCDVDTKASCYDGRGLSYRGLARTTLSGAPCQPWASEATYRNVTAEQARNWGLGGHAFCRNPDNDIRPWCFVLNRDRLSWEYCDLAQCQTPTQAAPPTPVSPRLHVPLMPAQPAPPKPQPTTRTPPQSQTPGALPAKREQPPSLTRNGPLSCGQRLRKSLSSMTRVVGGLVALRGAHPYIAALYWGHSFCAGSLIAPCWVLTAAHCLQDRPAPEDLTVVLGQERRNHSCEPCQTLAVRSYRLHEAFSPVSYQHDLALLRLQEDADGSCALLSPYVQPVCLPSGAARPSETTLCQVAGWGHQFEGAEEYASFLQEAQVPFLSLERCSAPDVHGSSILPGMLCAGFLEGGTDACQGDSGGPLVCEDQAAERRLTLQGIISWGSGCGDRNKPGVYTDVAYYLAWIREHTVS

Voltage-dependent T-type calcium channel subunit alpha-1H, sequence (O95180 whole entry): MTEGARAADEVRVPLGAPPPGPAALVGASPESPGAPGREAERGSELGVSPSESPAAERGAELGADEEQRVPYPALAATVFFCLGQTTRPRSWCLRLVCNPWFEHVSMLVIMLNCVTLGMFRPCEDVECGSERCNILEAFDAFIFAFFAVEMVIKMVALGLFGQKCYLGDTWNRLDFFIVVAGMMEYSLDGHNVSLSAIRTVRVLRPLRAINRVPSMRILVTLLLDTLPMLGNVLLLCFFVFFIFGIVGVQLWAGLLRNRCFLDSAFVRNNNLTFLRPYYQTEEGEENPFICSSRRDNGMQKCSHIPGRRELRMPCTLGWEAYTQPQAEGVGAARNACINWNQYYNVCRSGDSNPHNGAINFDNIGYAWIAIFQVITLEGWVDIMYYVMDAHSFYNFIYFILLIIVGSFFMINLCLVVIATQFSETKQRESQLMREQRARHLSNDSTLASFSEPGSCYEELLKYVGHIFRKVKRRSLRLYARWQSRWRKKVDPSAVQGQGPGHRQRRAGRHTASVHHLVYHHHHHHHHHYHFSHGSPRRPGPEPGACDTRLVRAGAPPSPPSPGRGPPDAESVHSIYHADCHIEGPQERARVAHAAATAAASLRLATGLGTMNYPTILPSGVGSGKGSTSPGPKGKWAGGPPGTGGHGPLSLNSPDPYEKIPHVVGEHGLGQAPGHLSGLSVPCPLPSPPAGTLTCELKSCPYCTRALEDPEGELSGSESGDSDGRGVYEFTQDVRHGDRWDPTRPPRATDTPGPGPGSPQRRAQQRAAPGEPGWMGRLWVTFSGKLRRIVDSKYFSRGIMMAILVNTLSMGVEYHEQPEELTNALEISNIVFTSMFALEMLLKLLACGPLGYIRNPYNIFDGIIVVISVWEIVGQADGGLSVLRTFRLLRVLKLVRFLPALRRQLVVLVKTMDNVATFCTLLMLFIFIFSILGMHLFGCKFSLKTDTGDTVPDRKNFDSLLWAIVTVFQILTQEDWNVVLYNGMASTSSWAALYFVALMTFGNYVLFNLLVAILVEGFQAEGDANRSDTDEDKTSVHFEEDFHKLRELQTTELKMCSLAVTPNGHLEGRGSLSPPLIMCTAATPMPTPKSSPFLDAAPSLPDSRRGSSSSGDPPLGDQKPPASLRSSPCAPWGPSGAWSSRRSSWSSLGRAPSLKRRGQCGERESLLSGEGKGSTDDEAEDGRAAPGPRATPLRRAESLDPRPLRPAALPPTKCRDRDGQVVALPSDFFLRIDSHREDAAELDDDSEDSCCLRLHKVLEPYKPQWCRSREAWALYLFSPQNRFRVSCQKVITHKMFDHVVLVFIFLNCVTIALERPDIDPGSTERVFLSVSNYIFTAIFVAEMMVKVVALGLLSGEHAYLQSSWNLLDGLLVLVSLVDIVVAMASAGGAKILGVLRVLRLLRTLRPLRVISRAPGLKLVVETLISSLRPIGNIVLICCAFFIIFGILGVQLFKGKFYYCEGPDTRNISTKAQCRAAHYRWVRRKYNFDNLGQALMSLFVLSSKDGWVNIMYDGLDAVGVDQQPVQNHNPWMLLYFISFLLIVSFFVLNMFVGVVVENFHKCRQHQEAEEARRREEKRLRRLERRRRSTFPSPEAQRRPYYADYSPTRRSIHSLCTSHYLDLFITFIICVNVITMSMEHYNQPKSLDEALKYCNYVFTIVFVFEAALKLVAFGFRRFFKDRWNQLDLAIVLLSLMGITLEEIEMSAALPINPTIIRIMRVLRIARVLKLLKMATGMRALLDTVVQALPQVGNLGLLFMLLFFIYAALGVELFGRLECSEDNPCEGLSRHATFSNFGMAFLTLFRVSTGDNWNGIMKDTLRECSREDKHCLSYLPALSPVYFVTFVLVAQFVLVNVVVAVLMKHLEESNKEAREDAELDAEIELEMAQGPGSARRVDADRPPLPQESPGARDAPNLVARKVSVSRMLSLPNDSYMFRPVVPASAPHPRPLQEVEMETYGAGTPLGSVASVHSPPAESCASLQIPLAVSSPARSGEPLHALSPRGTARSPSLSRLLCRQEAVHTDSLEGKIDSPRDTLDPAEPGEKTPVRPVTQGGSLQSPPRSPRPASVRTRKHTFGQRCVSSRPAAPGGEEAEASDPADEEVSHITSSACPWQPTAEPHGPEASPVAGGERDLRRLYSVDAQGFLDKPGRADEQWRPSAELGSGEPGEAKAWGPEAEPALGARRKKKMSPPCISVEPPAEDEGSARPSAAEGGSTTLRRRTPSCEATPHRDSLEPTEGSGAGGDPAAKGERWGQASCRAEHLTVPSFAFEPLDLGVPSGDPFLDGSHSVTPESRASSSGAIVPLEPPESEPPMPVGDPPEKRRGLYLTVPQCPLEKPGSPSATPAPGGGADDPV

EC50 [1]: 1.4 µM (active)
SMILES: Cc1ccc(-c2nnc(NC(=O)COc3ccc(Cl)cc3)o2)cc1C

SMILES: COc1ccccc1-n1sc2ccccc2c1=O
IC50 [2]: 7.9 µM (active)

IC50 [3]: > 32 µM (inactive)
IC50 [4]: > 32 µM (inactive)
IC50 [5]: > 20 µM (inactive)
IC50 [6]: > 32 µM (inactive)
SMILES: Cc1cccc(S(=O)(=O)NCc2ccc(C(=O)NCCN(Cc3ccccc3)Cc3ccccc3)cc2)c1

IC50 [7]: > 50 µM (inactive)
SMILES: COc1ccc(/C=c2/sc3n(c2=O)NC2(c4ccccc4)N(C)C(=O)N(C)C2(c2ccccc2)N=3)cc1 (configuration not stated)
